pIC50: −log10 of the molar value.
Biological target: TNFα (Homo sapiens (Human), UniProt P01375)
Assay: TNF induced HEK-Blue assay
Assay type: cell-based
Conditions: TNFα 0.5 ng/ml; HEK-Blue-CD40L cells, NF-kB-driven secreted alkaline phosphatase reporter; 18 h
Method: TNF or CD40L-Induced HEK-Blue Assay
Test compounds serially diluted in DMSO were plated in an assay plate (LABCYTE, Cat. # LP-0200) at final concentrations ranging from 0.004 μM to 25 μM. TNFα (final concentration 0.5 ng/ml) or CD40L (final concentration 30 ng/ml) in assay buffer [DMEM, 4.5 g/l glucose (Gibco, Cat. 21063-029), 10% FBS (Sigma, F4135), 1% Penicillin-Streptomycin (Gibco, Cat. 15140-122), 1% Anti-Anti (Gibco, Cat. 15240-112) and 2 mM L-glutamine (Gibco, Cat. 25030-081)] was then added to the assay plate. After a 30 minute pre-incubation at 37° C. and 5% CO2, HEK-Blue™-CD40L cells (INVIVOGEN, Cat. Code hkb-cd40) containing a NF-kB-driven secreted alkaline phosphatase reporter gene were seeded into the assay plate at a density of 20,000 cells per well. This plate was then incubated for 18 h at 37° C. and 5% CO2. Secreted alkaline phosphatase expression was measured using QUANTI-Blue™ (INVIVOGEN, Cat. Code rep-qb1) according to manufacturer's specifications and the assay plate was read on a PerkinElmer Envision at 620 nm.
Inhibition data for the test compound over a range of concentrations was plotted as percentage inhibition of the test compound (100%=maximum inhibition). IC50 values were determined after correcting for background [(sample read−mean of low control)/(mean of high control−mean of low control)] where by the low control is DMSO without stimulation and high control is DMSO with stimulation. The IC50 is defined as the concentration of test compound which produces 50% inhibition and was quantified using the 4 parameter logistic equation to fit the data.

Sequence of TNFα (P01375 77-233): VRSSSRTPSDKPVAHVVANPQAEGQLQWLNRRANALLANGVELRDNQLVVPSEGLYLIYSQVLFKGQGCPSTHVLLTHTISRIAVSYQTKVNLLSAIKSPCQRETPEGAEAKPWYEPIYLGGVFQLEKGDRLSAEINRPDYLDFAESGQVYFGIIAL

pIC50 | SMILES
> 6.00 | Fc1cc2nc3n(c2cc1-c1cnc(N2CCOCC2)nc1)[C@@H](c1ccccc1OC(F)F)[C@H]1C[C@@H]31 [Example 6, 4-(5-((1aR,8R,8aS)-8-(2-(difluoromethoxy)phenyl)-4-fluoro-1,1a,8,8a-tetrahydrobenzo[d]cyclopropa[3,4]pyrrolo[1,2-a]imidazol-5-yl)pyrimidin-2-yl)morpholine]
5.00 to 6.00 | CC(C)(O)c1ncc(-c2cc3c(cc2F)nc2n3[C@@H](c3ccccc3Oc3ccccc3)[C@@H]3C[C@H]23)cn1 (racemic) [Example 23, rac-2-(5-((1aR,8S,8aS)-4-fluoro-8-(2-phenoxyphenyl)-1,1a,8,8a-tetrahydrobenzo[d]cyclopropa[3,4]pyrrolo[1,2-a]imidazol-5-yl)pyrimidin-2-yl)propan-2-ol]
5.00 to 6.00 | COc1ccc(-c2ccc3nc4n(c3c2)[C@@H](c2ccccc2)[C@H]2CN(C(=O)NC(C)(C)C)C[C@@H]42)cn1 (racemic) [Example 37, rac-(3aR,10S,10aS)—N-(tert-butyl)-7-(6-methoxypyridin-3-yl)-10-phenyl-3,3a,10,10a-tetrahydrobenzo[d]pyrrolo[3′,4′:3,4]pyrrolo[1,2-a]imidazole-2(1H)-carboxamide]
5.00 to 6.00 | CC(C)(O)Cn1cc(-c2cc3c(cc2F)nc2n3[C@@H](c3ccccc3OC(F)F)[C@H]3C[C@@H]23)cn1 [Example 16, 1-(4-((1aR,8R,8aS)-8-(2-(difluoromethoxy)phenyl)-4-fluoro-1,1a,8,8a-tetrahydrobenzo[d]cyclopropa[3,4]pyrrolo[1,2-a]imidazol-5-yl)-1H-pyrazol-1-yl)-2-methylpropan-2-ol]
> 6.00 | O=C(O)CN1CCN(c2ncc(-c3cc4c(cc3F)nc3n4[C@@H](c4ccccc4OC(F)F)[C@@H]4C[C@H]34)cn2)CC1 [Example 33, 2-(4-(5-((1aS,8R,8aR)-8-(2-(difluoromethoxy)phenyl)-4-fluoro-1,1a,8,8a-tetrahydrobenzo[d]cyclopropa[3,4]pyrrolo[1,2-a]imidazol-5-yl)pyrimidin-2-yl)piperazin-1-yl)acetic acid]
> 6.00 | CC(C)(O)c1ncc(-c2cc3c(cc2F)nc2n3[C@@H](c3ccccc3OC(F)F)[C@@H]3C[C@H]23)cn1 (racemic) [Example 20, rac-2-(5-((1aR,8S,8aS)-8-(2-(difluoromethoxy)phenyl)-4-fluoro-1,1a,8,8a-tetrahydrobenzo[d]cyclopropa[3,4]pyrrolo[1,2-a]imidazol-5-yl)pyrimidin-2-yl)propan-2-ol]
5.00 to 6.00 | CC(C)(O)c1ncc(-c2cc3c(cc2F)nc2n3[C@@H](c3ccccc3OCc3ccncc3)[C@@H]3C[C@H]23)cn1 [Example 34, 2-(5-((1aS,8R,8aR)-4-fluoro-8-(2-(pyridin-4-ylmethoxy)phenyl)-1,1a,8,8a-tetrahydrobenzo[d]cyclopropa[3,4]pyrrolo[1,2-a]imidazol-5-yl)pyrimidin-2-yl)propan-2-ol]
> 6.00 | O=C(O)CN1CCN(c2ncc(-c3cc4c(cc3F)nc3n4[C@H](c4ccccc4OC(F)F)[C@@H]4C[C@H]34)cn2)CC1 [Example 18, 2-(4-(5-((1aS,8S,8aR)-8-(2-(difluoromethoxy)phenyl)-4-fluoro-1,1a,8,8a-tetrahydrobenzo[d]cyclopropa[3,4]pyrrolo[1,2-a]imidazol-5-yl)pyrimidin-2-yl)piperazin-1-yl)acetic acid]
5.00 to 6.00 | CC(C)(O)c1ncc(-c2cc3c(cc2F)nc2n3[C@@H](c3ccccc3Oc3ccccc3)[C@H]3C[C@@H]23)cn1 (racemic) [Example 24, rac-2-(5-((1aR,8R,8aS)-4-fluoro-8-(2-phenoxyphenyl)-1,1a,8,8a-tetrahydrobenzo[d]cyclopropa[3,4]pyrrolo[1,2-a]imidazol-5-yl)pyrimidin-2-yl)propan-2-ol]
5.00 to 6.00 | CC(C)(C)OC(=O)N1CC=C(c2cc3c(cc2F)nc2n3[C@@H](c3ccccc3OC(F)F)[C@H]3C[C@@H]23)CC1 [Example 17, tert-butyl 4-((1aR,8R,8aS)-8-(2-(difluoromethoxy)phenyl)-4-fluoro-1,1a,8,8a-tetrahydrobenzo[d]cyclopropa[3,4]pyrrolo[1,2-a]imidazol-5-yl)-3,6-dihydropyridine-1(2H)-carboxylate]
4.60 to 5.00 | CC(C)(O)c1ncc(-c2cc3c(cc2F)nc2n3[C@@H](c3ccccc3OCc3ccccc3)[C@H]3C[C@@H]23)cn1 (racemic) [Example 26, rac-2-(5-((1aR,8R,8aS)-8-(2-(benzyloxy)phenyl)-4-fluoro-1,1a,8,8a-tetrahydrobenzo[d]cyclopropa[3,4]pyrrolo[1,2-a]imidazol-5-yl)pyrimidin-2-yl)propan-2-ol]
> 6.00 | CC(C)(O)c1ncc(-c2cc3c(cc2F)nc2n3[C@H](c3ccccc3OC(F)F)[C@H]3C[C@@H]23)cn1 (stereo in doubt) [Example 21, 2-(5-((1aR,8S,8aS)-8-(2-(difluoromethoxy)phenyl)-4-fluoro-1,1a,8,8a-tetrahydrobenzo[d]cyclopropa[3,4]pyrrolo[1,2-a]imidazol-5-yl)pyrimidin-2-yl)propan-2-ol]
> 6.00 | O=C(O)CN1CCN(c2ncc(-c3cc4c(cc3F)nc3n4[C@@H](c4ccccc4OC(F)F)[C@H]4C[C@@H]34)cn2)CC1 [Example 4, 2-(4-(5-((1aR,8R,8aS)-8-(2-(difluoromethoxy)phenyl)-4-fluoro-1,1a,8,8a-tetrahydrobenzo[d]cyclopropa[3,4]pyrrolo[1,2-a]imidazol-5-yl)pyrimidin-2-yl)piperazin-1-yl)acetic acid]
4.60 to 5.00 | CC(C)(O)c1ncc(-c2cc3c(cc2F)nc2n3[C@H](c3ccccc3Oc3ccccc3F)[C@@H]3C[C@H]23)cn1 [Example 30, 2-(5-((1aS,8S,8aR)-4-fluoro-8-(2-(2-fluorophenoxy)phenyl)-1,1a,8,8a-tetrahydrobenzo[d]cyclopropa[3,4]pyrrolo[1,2-a]imidazol-5-yl)pyrimidin-2-yl)propan-2-ol]
4.60 to 5.00 | CC(C)(O)c1ncc(-c2cc3c(cc2F)nc2n3[C@H](c3ccccc3OCc3ccncc3)[C@@H]3C[C@H]23)cn1 [Example 35, 2-(5-((1aS,8S,8aR)-4-fluoro-8-(2-(pyridin-4-ylmethoxy)phenyl)-1,1a,8,8a-tetrahydrobenzo[d]cyclopropa[3,4]pyrrolo[1,2-a]imidazol-5-yl)pyrimidin-2-yl)propan-2-ol]
> 6.00 | Fc1cc2nc3n(c2cc1-c1cnc(N2CCOCC2)nc1)[C@@H](c1ccccc1OC(F)F)[C@@H]1C[C@H]31 [Example 31, 4-(5-((1aS,8R,8aR)-8-(2-(difluoromethoxy)phenyl)-4-fluoro-1,1a,8,8a-tetrahydrobenzo[d]cyclopropa[3,4]pyrrolo[1,2-a]imidazol-5-yl)pyrimidin-2-yl) morpholine]
> 6.00 | CC(C)(O)c1ncc(-c2cc3c(cc2F)nc2n3[C@H](c3ccccc3OC(F)F)[C@@H]3C[C@H]23)cn1 [Example 3, 2-(5-((1aS,8S,8aR)-8-(2-(difluoromethoxy)phenyl)-4-fluoro-1,1a,8,8a-tetrahydrobenzo[d]cyclopropa[3,4]pyrrolo[1,2-a]imidazol-5-yl)pyrimidin-2-yl)propan-2-ol]
> 6.00 | NC(=O)c1ccc(-c2cc3c(cc2F)nc2n3[C@@H](c3ccccc3OC(F)F)[C@H]3C[C@@H]23)cn1 [Example 7, 5-((1aR,8R,8aS)-8-(2-(difluoromethoxy)phenyl)-4-fluoro-1,1a,8,8a-tetrahydrobenzo[d]cyclopropa[3,4]pyrrolo[1,2-a]imidazol-5-yl)picolinamide]
4.60 to 5.00 | COc1ccc(-c2ccc3nc4n(c3c2)[C@@H](c2ccccc2)[C@H]2CNC[C@@H]42)cn1 (racemic) [Example 36, rac-(3aR,10S,10aS)-7-(6-methoxypyridin-3-yl)-10-phenyl-1,2,3,3a,10,10a-hexahydrobenzo[d]pyrrolo[3′,4′:3,4]pyrrolo[1,2-a]imidazole]
5.00 to 6.00 | CC(C)(O)c1ncc(-c2cc3c(cc2F)nc2n3[C@H](c3ccccc3Oc3ccccc3)[C@@H]3C[C@H]23)cn1 [Example 28, 2-(5-((1aS,8S,8aR)-4-fluoro-8-(2-phenoxyphenyl)-1,1a,8,8a-tetrahydrobenzo[d]cyclopropa[3,4]pyrrolo[1,2-a]imidazol-5-yl)pyrimidin-2-yl)propan-2-ol]

From patent publication US10335392B2, “Cyclic compounds useful as modulators of TNF α” (BRISTOL-MYERS SQUIBB COMPANY, priority 2015, dated 2019)
